# Data reported in patent US20260242419A1, “A CYCLIC PEPTIDE FOR TRAPPING INTERLEUKIN-1 BETA” (Merck Sharp & Dohme LLC, priority 2023, published 2026).
# Starred links: 1 amine or outer side, 2 acyl side, 3 side chain; linkers in the order of their positions; H or OH if unused. Non-standard residues stand in square brackets, D forms with d. Residues, ends and D or L forms follow the SMILES beside them. 3Pal4Ph4CO2H = 4-[5-[(2S)-2-amino-2-carboxy-ethyl]-2-pyridyl]benzoic acid, O=C([C@H](Cc1ccc(-c2ccc(C(=O)[*:3])cc2)nc1)N[*:1])[*:2]; TyrEtNAc = (2S)-3-[4-(2-acetamidoethoxy)phenyl]-2-amino-propanoic acid, CC(=O)NCCOc1ccc(C[C@H](N[*:1])C(=O)[*:2])cc1; dProc3Bn = (2R,3S)-3-benzylpyrrolidine-2-carboxylic acid, O=C([C@H]1[C@@H](Cc2ccccc2)CCN1[*:1])[*:2]; dPro(4R-(4-pyridylmethyl)) = O=C(O)[C@H]1C[C@@H](Cc2ccncc2)CN1; Trp(βS-Me,4-F) = C[C@@H](c1c[nH]c2cccc(F)c12)[C@H](N)C(=O)O; Bip(4'-CONH2) = NC(=O)c1ccc(-c2ccc(C[C@H](N)C(=O)O)cc2)cc1; Bip(4'-COOH) = N[C@@H](Cc1ccc(-c2ccc(C(=O)O)cc2)cc1)C(=O)O; Ala(1-bicyclo(1.1.1)pentyl) = N[C@@H](CC12CC(C1)C2)C(=O)O; dPro(4R-Bzl(4-F)) = O=C(O)[C@H]1C[C@@H](Cc2ccc(F)cc2)CN1; dPro(3S-(4-F-Bn)) = O=C(O)[C@@H]1NCC[C@@H]1Cc1ccc(F)cc1; X7 = Nc1cc(-c2ccc(C[C@H](N[*:1])C(=O)[*:2])cc2)ccn1; Ala(pyrimidin-5-yl) = N[C@@H](Cc1cncnc1)C(=O)O; Phe(4-CONH2) = NC(=O)c1ccc(C[C@H](N)C(=O)O)cc1; Phe(4-COOH) = N[C@@H](Cc1ccc(C(=O)O)cc1)C(=O)O; Ala(2-pyrazinyl) = N[C@@H](Cc1cnccn1)C(=O)O; Pro(cis-4-F) = O=C(O)[C@@H]1C[C@H](F)CN1; Ala(4-THP) = N[C@@H](CC1CCOCC1)C(=O)O; AEF = NCCOc1ccc(C[C@H](N)C(=O)O)cc1; d(αMeD) = C[C@@](N)(CC(=O)O)C(=O)O; 4Pal = N[C@@H](Cc1ccncc1)C(=O)O; aThr = C[C@H](O)[C@H](N)C(=O)O; d(αMeS) = C[C@@](N)(CO)C(=O)O; NMeDab = CN[C@@H](CCN)C(=O)O; Dab = NCC[C@H](N)C(=O)O; Dap = NC[C@H](N)C(=O)O; Aib = CC(C)(N)C(=O)O
# Molecular target: T1, IL-1β (Homo sapiens, UniProt P01584)
# T1 construct: purchased BioLegend 579404
# Test: IL-6 assay in MRC5 cells: inhibition of IL-1β induced IL-6 secretion (AlphaLISA)
# Assay type: cell-based
# Conditions: inhibition of IL-1β induced IL-6 secretion in MRC5 cells; read-out: MRC5 IC50
# How it was run: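 Compound was pre-incubated 1 h at ambient temperature with recombinant human IL-1β at 2λ EC80 before adding human lung fibroblast MRC5 cells (3000/well) in EMEM with 0.025% BSA. After overnight culture at 37 °C, 5% CO2, secreted IL-6 in conditioned medium was measured by AlphaLISA; IC50 from 4-parameter logistic fits.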
# T1 sequence (P01584 117-269): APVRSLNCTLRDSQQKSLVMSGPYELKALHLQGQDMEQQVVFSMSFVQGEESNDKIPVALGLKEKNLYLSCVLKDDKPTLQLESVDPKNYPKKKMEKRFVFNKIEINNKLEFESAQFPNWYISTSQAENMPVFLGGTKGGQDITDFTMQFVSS
row,Molecule,IC50 [nM]
1,"CC(=O)NCCOc1ccc(C[C@@H]2NC(=O)[C@H]3C[C@@H](Cc4ccncc4)CN3C(=O)CNC(=O)[C@H](CCN)NC(=O)[C@H](CCC(N)=O)NC(=O)[C@H](CC3CCOCC3)NC(=O)[C@@](C)(CO)NC(=O)[C@H](Cc3c[nH]c4ccccc34)NC(=O)[C@H](CO)NC(=O)C(C)(C)NC(=O)[C@H]([C@@H](C)c3c[nH]c4cccc(F)c34)NC(=O)[C@@H]3C[C@H](F)CN3C(=O)CNC(=O)[C@H](Cc3ccc(C(=O)O)cc3)NC(=O)[C@H](CC34CC(C3)C4)NC2=O)cc1 [Example 375] (cyclo([AEF](Ac)[Ala(1-bicyclo(1.1.1)pentyl)][Phe(4-COOH)]G[Pro(cis-4-F)][Trp(βS-Me,4-F)][Aib]SW[d(αMeS)][Ala(4-THP)]Q[Dab]G[dPro(4R-(4-pyridylmethyl))]))",0.025
2,"CC(=O)NCCOc1ccc(C[C@@H]2NC(=O)[C@H]3C[C@@H](Cc4ccncc4)CN3C(=O)CNC(=O)[C@H](CCN)NC(=O)[C@H](CCC(N)=O)NC(=O)[C@H](CC3CCOCC3)NC(=O)[C@@](C)(CC(=O)O)NC(=O)[C@H](Cc3c[nH]c4ccccc34)NC(=O)[C@H](CO)NC(=O)C(C)(C)NC(=O)[C@H]([C@@H](C)c3c[nH]c4cccc(F)c34)NC(=O)[C@@H]3C[C@H](F)CN3C(=O)CNC(=O)[C@H](Cc3ccc(C(N)=O)cc3)NC(=O)[C@H](CC34CC(C3)C4)NC2=O)cc1 [Example 376] (cyclo([AEF](Ac)[Ala(1-bicyclo(1.1.1)pentyl)][Phe(4-CONH2)]G[Pro(cis-4-F)][Trp(βS-Me,4-F)][Aib]SW[d(αMeD)][Ala(4-THP)]Q[Dab]G[dPro(4R-(4-pyridylmethyl))]))",0.048
3,"CC(=O)NCCOc1ccc(C[C@@H]2NC(=O)[C@H]3C[C@@H](Cc4ccncc4)CN3C(=O)CNC(=O)[C@H](CCN)NC(=O)[C@H](CCC(N)=O)NC(=O)[C@H](CC3CCOCC3)NC(=O)[C@@](C)(CC(=O)O)NC(=O)[C@H](Cc3c[nH]c4ccccc34)NC(=O)[C@H](CO)NC(=O)C(C)(C)NC(=O)[C@H]([C@@H](C)c3c[nH]c4cccc(F)c34)NC(=O)[C@@H]3C[C@H](F)CN3C(=O)CNC(=O)[C@H](Cc3ccc(C(N)=O)cc3)NC(=O)[C@H](Cc3ccncc3)NC2=O)cc1 [Example 377] (cyclo([AEF](Ac)[4Pal][Phe(4-CONH2)]G[Pro(cis-4-F)][Trp(βS-Me,4-F)][Aib]SW[d(αMeD)][Ala(4-THP)]Q[Dab]G[dPro(4R-(4-pyridylmethyl))]))",0.04
4,"CC(=O)NCCOc1ccc(C[C@@H]2NC(=O)[C@H]3C[C@@H](Cc4ccncc4)CN3C(=O)CNC(=O)[C@H](CCN)NC(=O)[C@H](CCC(N)=O)NC(=O)[C@H](CC3CCOCC3)NC(=O)[C@@](C)(CO)NC(=O)[C@H](Cc3c[nH]c4ccccc34)NC(=O)[C@H](CO)NC(=O)C(C)(C)NC(=O)[C@H]([C@@H](C)c3c[nH]c4cccc(F)c34)NC(=O)[C@@H]3C[C@H](F)CN3C(=O)CNC(=O)[C@H](Cc3ccc(C(N)=O)cc3)NC(=O)[C@H](Cc3ccncc3)NC2=O)cc1 [Example 378] (cyclo([AEF](Ac)[4Pal][Phe(4-CONH2)]G[Pro(cis-4-F)][Trp(βS-Me,4-F)][Aib]SW[d(αMeS)][Ala(4-THP)]Q[Dab]G[dPro(4R-(4-pyridylmethyl))]))",0.043
5,"C[C@@H](c1c[nH]c2cccc(F)c12)[C@@H]1NC(=O)[C@@H]2C[C@H](F)CN2C(=O)CNC(=O)[C@H](Cc2ccc(C(=O)O)cc2)NC(=O)[C@H](Cc2ccncc2)NC(=O)[C@H](Cc2ccc(-c3ccc(C(N)=O)cc3)cc2)NC(=O)[C@H]2[C@@H](Cc3ccc(F)cc3)CCN2C(=O)CNC(=O)[C@H](CCN)NC(=O)[C@H](CCC(N)=O)NC(=O)[C@H](Cc2cncnc2)NC(=O)[C@@](C)(CC(=O)O)NC(=O)[C@H](Cc2c[nH]c3ccccc23)NC(=O)[C@H](CO)NC(=O)C(C)(C)NC1=O [Example 379] (cyclo([Bip(4'-CONH2)][4Pal][Phe(4-COOH)]G[Pro(cis-4-F)][Trp(βS-Me,4-F)][Aib]SW[d(αMeD)][Ala(pyrimidin-5-yl)]Q[Dab]G[dPro(3S-(4-F-Bn))]))",0.016
6,"C[C@@H](c1c[nH]c2cccc(F)c12)[C@@H]1NC(=O)[C@@H]2C[C@H](F)CN2C(=O)CNC(=O)[C@H](Cc2ccc(C(N)=O)cc2)NC(=O)[C@H](Cc2ccncc2)NC(=O)[C@H](Cc2ccc(-c3ccc(C(N)=O)cc3)cc2)NC(=O)[C@H]2[C@@H](Cc3ccc(F)cc3)CCN2C(=O)CNC(=O)[C@H](CCN)NC(=O)[C@H](CCC(N)=O)NC(=O)[C@H](Cc2cncnc2)NC(=O)[C@@](C)(CC(=O)O)NC(=O)[C@H](Cc2c[nH]c3ccccc23)NC(=O)[C@H](CO)NC(=O)C(C)(C)NC1=O [Example 380] (cyclo([Bip(4'-CONH2)][4Pal][Phe(4-CONH2)]G[Pro(cis-4-F)][Trp(βS-Me,4-F)][Aib]SW[d(αMeD)][Ala(pyrimidin-5-yl)]Q[Dab]G[dPro(3S-(4-F-Bn))]))",0.018
7,"CCO[C@@H](C)[C@@H]1NC(=O)C(C)(C)NC(=O)[C@H](Cc2c[nH]c3ccccc23)NC(=O)[C@H](CO)NC(=O)C(C)(C)NC(=O)[C@H]([C@@H](C)c2c[nH]c3cccc(F)c23)NC(=O)[C@@H]2C[C@H](F)CN2C(=O)CNC(=O)[C@H](Cc2ccc(C(N)=O)cc2)NC(=O)[C@H](Cc2ccncc2)NC(=O)[C@H](Cc2ccc(OCCNC(C)=O)cc2)NC(=O)[C@H]2C[C@@H](Cc3ccncc3)CN2C(=O)CNC(=O)[C@H](CCN)N(C)C(=O)[C@H](CCC(N)=O)NC1=O [Example 381] (cyclo([4Pal][Phe(4-CONH2)]G[Pro(cis-4-F)][Trp(βS-Me,4-F)][Aib]SW[Aib][aThr](Et)Q[NMeDab]G[dPro(4R-(4-pyridylmethyl))][AEF](Ac)))",0.041
8,"CCO[C@H](C)[C@@H]1NC(=O)C(C)(C)NC(=O)[C@H](Cc2c[nH]c3ccccc23)NC(=O)[C@H](CO)NC(=O)C(C)(C)NC(=O)[C@H]([C@@H](C)c2c[nH]c3cccc(F)c23)NC(=O)[C@@H]2C[C@H](F)CN2C(=O)CNC(=O)[C@H](Cc2ccc(C(N)=O)cc2)NC(=O)[C@H](Cc2ccncc2)NC(=O)[C@H](Cc2ccc(OCCNC(C)=O)cc2)NC(=O)[C@H]2C[C@@H](Cc3ccncc3)CN2C(=O)CNC(=O)[C@H](CCN)N(C)C(=O)[C@H](CCC(N)=O)NC1=O [Example 382] (cyclo([AEF](Ac)[4Pal][Phe(4-CONH2)]G[Pro(cis-4-F)][Trp(βS-Me,4-F)][Aib]SW[Aib]T(Et)Q[NMeDab]G[dPro(4R-(4-pyridylmethyl))]))",0.048
9,"C[C@@H](c1c[nH]c2cccc(F)c12)[C@@H]1NC(=O)[C@@H]2C[C@H](F)CN2C(=O)CNC(=O)[C@H](Cc2ccc(C(=O)O)cc2)NC(=O)[C@H](Cc2ccncc2)NC(=O)[C@H](Cc2ccc(-c3ccnc(N)c3)cc2)NC(=O)[C@H]2[C@@H](Cc3ccc(F)cc3)CCN2C(=O)CNC(=O)[C@H](CCN)NC(=O)[C@H](CCC(N)=O)NC(=O)[C@H](Cc2cncnc2)NC(=O)[C@@](C)(CC(=O)O)NC(=O)[C@H](Cc2c[nH]c3ccccc23)NC(=O)[C@H](CO)NC(=O)C(C)(C)NC1=O [Example 385] (cyclo([X7][4Pal][Phe(4-COOH)]G[Pro(cis-4-F)][Trp(βS-Me,4-F)][Aib]SW[d(αMeD)][Ala(pyrimidin-5-yl)]Q[Dab]G[dPro(3S-(4-F-Bn))]))",0.023

# Molecular target: Recombinant human IL-1β (BioLegend 579404) (human, UniProt P01584 117-269)
# Test: cell-based or functional assay
# Conditions: not given
row,Molecule,MRC5 IC50 [nM]
1,"cyclo([Bip(4'-COOH)][4Pal][Phe(4-COOH)]G[Pro(cis-4-F)][Trp(βS-Me,4-F)][Aib]EW[Aib]FQSG[dProc3Bn]) (SMILES C[C@@H](c1c[nH]c2cccc(F)c12)[C@@H]1NC(=O)[C@@H]2C[C@H](F)CN2C(=O)CNC(=O)[C@H](Cc2ccc(C(=O)O)cc2)NC(=O)[C@H](Cc2ccncc2)NC(=O)[C@H](Cc2ccc(-c3ccc(C(=O)O)cc3)cc2)NC(=O)[C@H]2[C@@H](Cc3ccccc3)CCN2C(=O)CNC(=O)[C@H](CO)NC(=O)[C@H](CCC(N)=O)NC(=O)[C@H](Cc2ccccc2)NC(=O)C(C)(C)NC(=O)[C@H](Cc2c[nH]c3ccccc23)NC(=O)[C@H](CCC(=O)O)NC(=O)C(C)(C)NC1=O) [SEQ ID NO: 1]",0.093
2,"cyclo([3Pal4Ph4CO2H][Ala(1-bicyclo(1.1.1)pentyl)][Phe(4-COOH)]G[Pro(cis-4-F)][Trp(βS-Me,4-F)][Aib]EW[Aib][Dap]Q[Dab]G[dPro(4R-Bzl(4-F))]) (SMILES C[C@@H](c1c[nH]c2cccc(F)c12)[C@@H]1NC(=O)[C@@H]2C[C@H](F)CN2C(=O)CNC(=O)[C@H](Cc2ccc(C(=O)O)cc2)NC(=O)[C@H](CC23CC(C2)C3)NC(=O)[C@H](Cc2ccc(-c3ccc(C(=O)O)cc3)nc2)NC(=O)[C@H]2C[C@@H](Cc3ccc(F)cc3)CN2C(=O)CNC(=O)[C@H](CCN)NC(=O)[C@H](CCC(N)=O)NC(=O)[C@H](CN)NC(=O)C(C)(C)NC(=O)[C@H](Cc2c[nH]c3ccccc23)NC(=O)[C@H](CCC(=O)O)NC(=O)C(C)(C)NC1=O) [SEQ ID NO: 100]",0.074
3,"cyclo([Bip(4'-COOH)][4Pal][Phe(4-COOH)]G[Pro(cis-4-F)][Trp(βS-Me,4-F)][Aib]EW[Aib][Ala(2-pyrazinyl)]Q[Dab]G[dPro(4R-Bzl(4-F))]) [SEQ ID NO: 101]",0.021
4,"cyclo([TyrEtNAc][4Pal][Phe(4-COOH)]G[Pro(cis-4-F)][Trp(βS-Me,4-F)][Aib]EW[Aib][Ala(pyrimidin-5-yl)]Q[Dab]G[dPro(4R-Bzl(4-F))]) (SMILES CC(=O)NCCOc1ccc(C[C@@H]2NC(=O)[C@H]3C[C@@H](Cc4ccc(F)cc4)CN3C(=O)CNC(=O)[C@H](CCN)NC(=O)[C@H](CCC(N)=O)NC(=O)[C@H](Cc3cncnc3)NC(=O)C(C)(C)NC(=O)[C@H](Cc3c[nH]c4ccccc34)NC(=O)[C@H](CCC(=O)O)NC(=O)C(C)(C)NC(=O)[C@H]([C@@H](C)c3c[nH]c4cccc(F)c34)NC(=O)[C@@H]3C[C@H](F)CN3C(=O)CNC(=O)[C@H](Cc3ccc(C(=O)O)cc3)NC(=O)[C@H](Cc3ccncc3)NC2=O)cc1) [SEQ ID NO: 10]",0.027
